Test results reported in ChEMBL document CHEMBL1201862, “PubChem BioAssay data set” (2004).
Activity calls are given as the source filed them.

Key:
Estrogen receptor = target: T1, Estrogen receptor (Homo sapiens, UniProt P03372);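 also: potency for inhibiting coactivator peptide recruitment to the receptor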
T1 sequence (P03372 whole entry): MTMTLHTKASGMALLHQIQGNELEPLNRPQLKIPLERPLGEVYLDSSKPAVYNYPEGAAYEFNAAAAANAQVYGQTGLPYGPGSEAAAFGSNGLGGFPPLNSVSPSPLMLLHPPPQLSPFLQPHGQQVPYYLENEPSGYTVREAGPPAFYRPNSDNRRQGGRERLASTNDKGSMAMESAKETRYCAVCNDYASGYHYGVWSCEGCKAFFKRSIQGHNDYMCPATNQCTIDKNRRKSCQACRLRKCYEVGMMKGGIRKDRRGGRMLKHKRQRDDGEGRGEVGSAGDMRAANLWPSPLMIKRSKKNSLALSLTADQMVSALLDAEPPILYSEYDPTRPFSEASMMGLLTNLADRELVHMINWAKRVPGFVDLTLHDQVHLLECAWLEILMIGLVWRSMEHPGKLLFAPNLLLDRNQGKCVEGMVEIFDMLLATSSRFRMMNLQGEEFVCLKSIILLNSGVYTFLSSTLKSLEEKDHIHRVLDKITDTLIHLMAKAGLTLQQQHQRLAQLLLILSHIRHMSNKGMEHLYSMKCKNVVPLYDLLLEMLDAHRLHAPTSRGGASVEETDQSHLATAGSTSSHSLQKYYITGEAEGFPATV

[1] = target: T2, Voltage-gated N-type calcium channel alpha-1B subunit/Amyloid beta A4 precursor protein-binding family A member 1 (Homo sapiens, UniProt Q00975+Q02410); assay type: protein assay
T2 sequence (Q00975 whole entry): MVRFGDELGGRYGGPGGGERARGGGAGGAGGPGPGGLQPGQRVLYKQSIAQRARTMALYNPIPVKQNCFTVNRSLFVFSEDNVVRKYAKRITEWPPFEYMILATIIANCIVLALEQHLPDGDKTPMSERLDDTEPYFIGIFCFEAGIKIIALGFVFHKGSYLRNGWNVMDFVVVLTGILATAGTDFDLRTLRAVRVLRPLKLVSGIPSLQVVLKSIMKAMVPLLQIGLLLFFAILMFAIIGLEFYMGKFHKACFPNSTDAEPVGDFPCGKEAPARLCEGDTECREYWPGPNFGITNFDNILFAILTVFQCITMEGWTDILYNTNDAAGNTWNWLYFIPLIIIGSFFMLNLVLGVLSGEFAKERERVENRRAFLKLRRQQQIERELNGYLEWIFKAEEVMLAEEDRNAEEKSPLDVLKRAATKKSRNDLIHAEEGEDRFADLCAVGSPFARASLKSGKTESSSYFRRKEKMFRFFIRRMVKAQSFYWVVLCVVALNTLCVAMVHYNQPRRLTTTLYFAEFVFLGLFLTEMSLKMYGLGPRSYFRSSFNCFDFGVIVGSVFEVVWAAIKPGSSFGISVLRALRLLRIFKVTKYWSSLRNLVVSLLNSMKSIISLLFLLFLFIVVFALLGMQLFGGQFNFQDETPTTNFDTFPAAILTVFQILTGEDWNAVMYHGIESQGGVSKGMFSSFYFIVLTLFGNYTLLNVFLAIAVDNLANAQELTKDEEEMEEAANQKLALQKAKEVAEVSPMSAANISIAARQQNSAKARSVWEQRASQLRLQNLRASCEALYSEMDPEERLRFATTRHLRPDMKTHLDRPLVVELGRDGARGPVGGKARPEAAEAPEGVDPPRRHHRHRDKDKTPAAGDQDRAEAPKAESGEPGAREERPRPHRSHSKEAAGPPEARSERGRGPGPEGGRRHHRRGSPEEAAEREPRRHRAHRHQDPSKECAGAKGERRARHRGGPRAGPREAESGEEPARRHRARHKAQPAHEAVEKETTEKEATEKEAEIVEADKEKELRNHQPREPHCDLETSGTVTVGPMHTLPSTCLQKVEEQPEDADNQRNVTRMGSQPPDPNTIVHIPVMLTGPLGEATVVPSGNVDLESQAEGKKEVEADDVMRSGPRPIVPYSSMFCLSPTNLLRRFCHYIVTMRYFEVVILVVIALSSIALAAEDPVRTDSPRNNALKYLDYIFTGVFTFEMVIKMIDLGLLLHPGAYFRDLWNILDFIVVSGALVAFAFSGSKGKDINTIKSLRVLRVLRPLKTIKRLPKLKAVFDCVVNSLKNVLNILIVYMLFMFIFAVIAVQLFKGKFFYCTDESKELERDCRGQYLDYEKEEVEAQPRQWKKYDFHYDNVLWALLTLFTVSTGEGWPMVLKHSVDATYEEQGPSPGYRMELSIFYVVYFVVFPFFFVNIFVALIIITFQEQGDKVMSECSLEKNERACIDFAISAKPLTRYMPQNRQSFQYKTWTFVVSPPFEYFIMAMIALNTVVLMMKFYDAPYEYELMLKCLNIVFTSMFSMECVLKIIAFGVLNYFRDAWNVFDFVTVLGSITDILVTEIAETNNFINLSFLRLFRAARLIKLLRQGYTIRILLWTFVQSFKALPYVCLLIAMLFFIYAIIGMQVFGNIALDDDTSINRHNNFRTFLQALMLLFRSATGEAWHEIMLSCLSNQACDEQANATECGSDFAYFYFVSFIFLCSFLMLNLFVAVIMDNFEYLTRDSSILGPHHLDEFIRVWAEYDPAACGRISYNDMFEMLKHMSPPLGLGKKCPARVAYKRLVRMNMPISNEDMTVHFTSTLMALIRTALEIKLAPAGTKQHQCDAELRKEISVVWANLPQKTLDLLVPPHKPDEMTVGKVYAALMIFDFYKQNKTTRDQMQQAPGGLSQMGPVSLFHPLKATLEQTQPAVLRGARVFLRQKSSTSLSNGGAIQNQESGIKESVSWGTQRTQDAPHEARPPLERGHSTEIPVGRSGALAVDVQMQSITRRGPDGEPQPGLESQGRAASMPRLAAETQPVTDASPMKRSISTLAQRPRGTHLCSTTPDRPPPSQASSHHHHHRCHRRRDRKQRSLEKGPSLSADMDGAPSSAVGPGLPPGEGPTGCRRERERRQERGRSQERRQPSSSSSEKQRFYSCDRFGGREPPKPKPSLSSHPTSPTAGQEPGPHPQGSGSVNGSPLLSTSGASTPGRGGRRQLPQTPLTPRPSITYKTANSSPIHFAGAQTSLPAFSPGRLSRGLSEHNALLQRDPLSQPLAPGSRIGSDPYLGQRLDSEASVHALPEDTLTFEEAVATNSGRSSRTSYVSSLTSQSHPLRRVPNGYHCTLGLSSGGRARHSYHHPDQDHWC
T2 sequence (Q02410 whole entry): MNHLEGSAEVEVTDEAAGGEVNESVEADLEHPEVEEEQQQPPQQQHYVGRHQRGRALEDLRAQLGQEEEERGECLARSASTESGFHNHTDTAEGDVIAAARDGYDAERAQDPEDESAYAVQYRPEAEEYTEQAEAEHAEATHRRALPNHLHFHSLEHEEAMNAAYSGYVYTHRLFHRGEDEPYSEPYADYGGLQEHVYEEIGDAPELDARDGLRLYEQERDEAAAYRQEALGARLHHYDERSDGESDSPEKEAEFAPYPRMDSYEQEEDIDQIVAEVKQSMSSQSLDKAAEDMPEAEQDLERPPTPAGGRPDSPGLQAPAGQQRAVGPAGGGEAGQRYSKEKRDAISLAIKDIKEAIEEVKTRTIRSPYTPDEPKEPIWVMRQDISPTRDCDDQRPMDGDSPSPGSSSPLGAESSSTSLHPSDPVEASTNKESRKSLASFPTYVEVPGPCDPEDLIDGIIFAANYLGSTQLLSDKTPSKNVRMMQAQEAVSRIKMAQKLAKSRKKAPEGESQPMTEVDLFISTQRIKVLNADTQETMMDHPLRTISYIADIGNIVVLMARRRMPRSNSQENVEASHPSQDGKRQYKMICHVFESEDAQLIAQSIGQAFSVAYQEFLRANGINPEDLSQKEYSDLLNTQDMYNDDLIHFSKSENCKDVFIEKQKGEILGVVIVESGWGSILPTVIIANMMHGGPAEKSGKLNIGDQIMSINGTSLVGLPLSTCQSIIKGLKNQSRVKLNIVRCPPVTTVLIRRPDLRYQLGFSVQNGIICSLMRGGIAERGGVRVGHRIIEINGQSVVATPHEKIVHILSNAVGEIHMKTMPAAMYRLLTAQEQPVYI

INS1 = assay: INS-1E survival protection against cytokine death – cell-based, luminescence, retest, dose response (AID 449756); assay type: functional; conditions: Rattus norvegicus;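 also: cell death triggered by IL-1 beta plus TNF-alpha plus IFN-gamma mixture; protective hits raise ATP signal compared with cytokine alone wells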
[2] = test system: Streptococcus sp. 'group A'; assay: Streptococcus pyogenes SK(-)GAS viability under kanamycin – luminescence, BacTiterGlo, confirmation, counter-screen for streptokinase expression inhibitor project, dose response (AID 1900); assay type: functional, organism-based
Streptococcus = assay: GAS UMAA2166 growth inhibition – luminescence, BacTiterGlo, counter-screen for streptokinase expression inhibitor project, dose response (AID 1915); assay type: functional, organism-based;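 also: potency for reduction of bacterial viability or growth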
[3] = target: T3, Apoptotic protease-activating factor 1 (Homo sapiens, UniProt O14727); assay type: functional
T3 sequence (O14727 whole entry): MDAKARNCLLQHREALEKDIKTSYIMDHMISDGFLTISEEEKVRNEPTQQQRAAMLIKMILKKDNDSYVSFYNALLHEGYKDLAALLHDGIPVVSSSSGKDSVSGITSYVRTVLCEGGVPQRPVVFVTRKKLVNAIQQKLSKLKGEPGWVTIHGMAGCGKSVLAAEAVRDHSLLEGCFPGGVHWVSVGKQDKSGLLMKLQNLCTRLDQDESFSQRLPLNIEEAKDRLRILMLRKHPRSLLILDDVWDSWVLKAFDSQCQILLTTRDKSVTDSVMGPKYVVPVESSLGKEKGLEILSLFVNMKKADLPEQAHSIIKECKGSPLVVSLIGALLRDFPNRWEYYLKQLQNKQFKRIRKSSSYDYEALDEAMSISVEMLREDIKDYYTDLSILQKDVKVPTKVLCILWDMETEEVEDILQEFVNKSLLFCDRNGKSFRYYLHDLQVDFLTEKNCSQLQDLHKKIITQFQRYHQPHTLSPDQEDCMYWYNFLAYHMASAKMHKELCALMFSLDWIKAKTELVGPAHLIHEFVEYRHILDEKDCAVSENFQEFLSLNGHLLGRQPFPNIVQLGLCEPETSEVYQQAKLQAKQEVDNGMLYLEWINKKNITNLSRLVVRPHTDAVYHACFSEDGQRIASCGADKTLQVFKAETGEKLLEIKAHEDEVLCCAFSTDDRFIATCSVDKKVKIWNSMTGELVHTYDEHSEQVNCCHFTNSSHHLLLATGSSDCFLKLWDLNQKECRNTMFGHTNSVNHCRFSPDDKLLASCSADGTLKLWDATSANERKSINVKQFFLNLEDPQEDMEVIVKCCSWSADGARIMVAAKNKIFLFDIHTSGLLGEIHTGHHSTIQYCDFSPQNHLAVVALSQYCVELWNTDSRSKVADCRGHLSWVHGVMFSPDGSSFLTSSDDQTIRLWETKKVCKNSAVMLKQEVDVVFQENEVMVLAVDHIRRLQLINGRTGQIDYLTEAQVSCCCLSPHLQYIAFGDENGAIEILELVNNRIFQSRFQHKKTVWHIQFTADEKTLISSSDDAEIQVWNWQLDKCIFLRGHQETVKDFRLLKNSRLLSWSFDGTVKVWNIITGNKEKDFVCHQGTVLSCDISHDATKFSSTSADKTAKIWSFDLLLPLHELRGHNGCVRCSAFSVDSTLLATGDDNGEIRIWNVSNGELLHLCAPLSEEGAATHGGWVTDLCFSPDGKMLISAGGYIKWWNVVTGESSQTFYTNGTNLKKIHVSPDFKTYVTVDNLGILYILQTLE

[4] = target: Voltage-dependent T-type calcium channel subunit alpha-1H (Homo sapiens, UniProt O95180); assay type: functional;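 also: channel activity triggered by adding a high calcium stimulation buffer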
[5] = target: T2, Voltage-gated N-type calcium channel alpha-1B subunit/Amyloid beta A4 precursor protein-binding family A member 1; assay type: protein assay; remark: listed apart in the source
Streptokinase A = target: T4, Streptokinase A (Streptococcus pyogenes serotype M1, UniProt P10520); assay: viability-normalized secreted streptokinase activity reduction – plasminogen activation absorbance, OD405, dose response (AID 1914); assay type: functional, Streptococcus pyogenes M1 GAS;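 also: secreted streptokinase activity via plasminogen activation per viability signal from cell pellet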
T4 sequence (P10520 whole entry): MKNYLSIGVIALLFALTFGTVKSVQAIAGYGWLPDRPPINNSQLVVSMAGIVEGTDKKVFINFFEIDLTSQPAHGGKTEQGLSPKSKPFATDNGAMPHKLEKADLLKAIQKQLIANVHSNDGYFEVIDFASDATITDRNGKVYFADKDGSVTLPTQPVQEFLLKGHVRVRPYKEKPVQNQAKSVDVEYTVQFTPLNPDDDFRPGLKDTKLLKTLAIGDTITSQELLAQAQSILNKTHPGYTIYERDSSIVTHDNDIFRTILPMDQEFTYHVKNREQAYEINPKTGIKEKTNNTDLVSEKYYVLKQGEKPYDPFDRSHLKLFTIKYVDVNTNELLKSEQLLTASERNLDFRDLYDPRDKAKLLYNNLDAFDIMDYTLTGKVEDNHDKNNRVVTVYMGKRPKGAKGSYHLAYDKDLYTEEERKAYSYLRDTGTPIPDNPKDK

Vero = assay: cells; assay type: functional; conditions: Chlorocebus sabaeus
Caspase-3 = target: T5, Caspase-3 (Homo sapiens, UniProt P42574); assay: SAR Analysis of small molecule inhibitors of Sentrin-specific proteases (SENPs) using a Caspase-3 Selectivity assay. [Related pubchem assays (depositor defined):AID2540, AID2599, AID434973, AID489001]; assay type: functional
T5 sequence (P42574 whole entry): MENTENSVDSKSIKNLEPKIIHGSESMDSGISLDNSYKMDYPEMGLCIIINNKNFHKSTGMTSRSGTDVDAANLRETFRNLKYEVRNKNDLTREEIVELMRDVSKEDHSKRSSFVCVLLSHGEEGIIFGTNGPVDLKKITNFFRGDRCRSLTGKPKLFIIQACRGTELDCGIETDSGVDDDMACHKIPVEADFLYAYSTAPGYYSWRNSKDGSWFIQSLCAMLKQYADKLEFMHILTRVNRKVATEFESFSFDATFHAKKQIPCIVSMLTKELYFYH

[6] = target: T6, Sentrin-specific protease 7 (Homo sapiens, UniProt Q9BQF6); assay: inhibition of human SENP7 cleavage activity – biochemical, luminescence, SAR follow-up (AID 504497); assay type: functional
T6 sequence (Q9BQF6 whole entry): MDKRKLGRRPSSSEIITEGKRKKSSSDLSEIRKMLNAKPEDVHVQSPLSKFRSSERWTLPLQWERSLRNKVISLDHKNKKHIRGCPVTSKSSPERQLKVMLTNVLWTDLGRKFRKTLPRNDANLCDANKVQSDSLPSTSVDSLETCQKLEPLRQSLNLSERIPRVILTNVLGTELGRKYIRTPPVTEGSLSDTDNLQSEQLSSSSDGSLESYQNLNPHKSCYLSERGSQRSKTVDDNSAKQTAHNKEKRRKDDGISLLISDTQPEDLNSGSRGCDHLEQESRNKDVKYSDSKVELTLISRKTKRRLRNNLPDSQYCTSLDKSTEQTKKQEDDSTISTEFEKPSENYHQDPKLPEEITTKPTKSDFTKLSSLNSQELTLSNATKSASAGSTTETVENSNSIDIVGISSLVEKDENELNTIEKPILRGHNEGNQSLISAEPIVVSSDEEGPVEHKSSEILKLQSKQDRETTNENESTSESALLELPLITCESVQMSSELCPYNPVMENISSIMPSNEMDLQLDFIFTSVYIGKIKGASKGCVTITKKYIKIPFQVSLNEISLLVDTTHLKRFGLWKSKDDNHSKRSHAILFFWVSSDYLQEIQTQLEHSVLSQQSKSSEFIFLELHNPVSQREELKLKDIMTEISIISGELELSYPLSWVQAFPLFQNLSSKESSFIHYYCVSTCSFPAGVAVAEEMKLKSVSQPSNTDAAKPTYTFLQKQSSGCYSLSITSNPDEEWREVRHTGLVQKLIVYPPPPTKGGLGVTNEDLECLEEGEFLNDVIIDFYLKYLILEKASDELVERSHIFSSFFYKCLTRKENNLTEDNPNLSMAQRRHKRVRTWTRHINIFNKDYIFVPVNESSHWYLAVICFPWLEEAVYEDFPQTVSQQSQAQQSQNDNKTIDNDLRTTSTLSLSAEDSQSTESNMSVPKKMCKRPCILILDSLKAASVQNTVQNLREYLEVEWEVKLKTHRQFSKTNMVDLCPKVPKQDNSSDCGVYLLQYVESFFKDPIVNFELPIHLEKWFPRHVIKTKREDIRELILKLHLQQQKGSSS

[7] = target: T7, Sentrin-specific protease 8 (Homo sapiens, UniProt Q96LD8); assay: inhibition of human SENP8 cleavage activity – biochemical, luminescence, SAR follow-up (AID 504501); assay type: functional
T7 sequence (Q96LD8 whole entry): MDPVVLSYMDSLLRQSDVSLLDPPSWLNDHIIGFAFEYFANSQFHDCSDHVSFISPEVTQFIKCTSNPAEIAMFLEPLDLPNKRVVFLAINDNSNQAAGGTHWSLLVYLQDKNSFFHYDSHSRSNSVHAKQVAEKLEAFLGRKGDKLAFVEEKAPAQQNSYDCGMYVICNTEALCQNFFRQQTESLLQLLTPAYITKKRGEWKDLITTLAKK

[8] = target: T8, Sentrin-specific protease 6 (Homo sapiens, UniProt Q9GZR1); assay: SAR Analysis of small molecule inhibitors of Sentrin-specific protease 6 (SENP6) using a Luminescent assay. [Related pubchem assays (depositor defined):AID2582, AID2599]; assay type: functional
T8 sequence (Q9GZR1 whole entry): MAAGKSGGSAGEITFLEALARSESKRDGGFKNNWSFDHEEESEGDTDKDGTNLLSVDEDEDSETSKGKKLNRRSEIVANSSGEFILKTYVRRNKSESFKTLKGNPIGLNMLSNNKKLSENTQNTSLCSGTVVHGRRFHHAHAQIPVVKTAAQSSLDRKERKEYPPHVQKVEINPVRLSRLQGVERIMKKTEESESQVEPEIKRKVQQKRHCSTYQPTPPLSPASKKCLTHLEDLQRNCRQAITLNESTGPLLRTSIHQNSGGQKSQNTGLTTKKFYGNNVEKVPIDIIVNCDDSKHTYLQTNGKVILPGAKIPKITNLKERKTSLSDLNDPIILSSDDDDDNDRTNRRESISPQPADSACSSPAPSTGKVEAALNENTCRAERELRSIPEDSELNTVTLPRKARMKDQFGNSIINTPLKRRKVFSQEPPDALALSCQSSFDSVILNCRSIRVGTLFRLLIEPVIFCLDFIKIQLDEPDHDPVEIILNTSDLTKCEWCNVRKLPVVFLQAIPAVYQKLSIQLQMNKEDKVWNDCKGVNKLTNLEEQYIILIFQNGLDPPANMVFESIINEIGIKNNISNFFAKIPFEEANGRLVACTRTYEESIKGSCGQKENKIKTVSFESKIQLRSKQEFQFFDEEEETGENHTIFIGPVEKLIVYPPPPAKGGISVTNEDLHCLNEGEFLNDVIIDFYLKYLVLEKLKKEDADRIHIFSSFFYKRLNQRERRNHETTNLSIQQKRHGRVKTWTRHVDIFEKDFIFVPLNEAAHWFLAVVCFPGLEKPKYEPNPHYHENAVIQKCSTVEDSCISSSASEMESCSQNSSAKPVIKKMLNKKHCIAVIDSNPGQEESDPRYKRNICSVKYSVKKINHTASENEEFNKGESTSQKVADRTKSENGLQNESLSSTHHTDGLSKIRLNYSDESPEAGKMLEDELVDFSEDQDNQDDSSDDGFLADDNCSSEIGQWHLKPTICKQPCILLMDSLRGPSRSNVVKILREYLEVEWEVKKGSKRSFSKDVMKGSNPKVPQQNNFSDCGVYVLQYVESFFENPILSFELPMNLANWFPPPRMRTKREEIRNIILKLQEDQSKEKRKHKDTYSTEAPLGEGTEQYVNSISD

What does the source list for CCCCCCc1cc2cc(-c3nnc(-c4ccccc4)o3)c(=O)oc2cc1O?
IC50 (Estrogen receptor): 34.9 µM (not active); IC50 [1]: > 50 µM (inactive); AC50 (INS1): 7.4 µM (active); EC50 [2]: 6.12 µM (active); EC50 (Streptococcus): 38.7 µM (inconclusive); IC50 [3]: 11.7 µM (active); EC50 [4]: 3 µM (active); IC50 [5]: 9.32 µM (active); EC50 (Streptokinase A): > 150 µM (not active); CC50 (Vero): 11.3 µM (active)

For O=C(Nc1nc2c(Br)cccc2s1)c1ccc2c(c1)OCCO2, which IC50 (Caspase-3) is on record?
The IC50 was 13 µM (active).

And the IC50 [6]?
Its IC50 is 2.6 µM (active).

What about the IC50 [7] of the same molecule?
Its IC50 is 5.3 µM (active).

What about the IC50 [8] of the same molecule?
The IC50 was 4.5 µM (active).

C/C(=C\c1ccccc1)c1nc(-c2cccc(C(F)(F)F)c2)no1 was tested. Which IC50 (Caspase-3) did it give?
Its IC50 is > 99 µM (inactive).

What about the IC50 [6] of the same molecule?
Its IC50 is > 99 µM (inactive).

And the IC50 [7]?
Its IC50 is > 99 µM (inactive).

And the IC50 [8]?
Its IC50 is > 99 µM (inactive).
